Results as given in the NIST ThermoML archive (doi:10.1021/je050429b).
± gives the expanded uncertainty stated by the source.

Conditions: Gas, Oscillating disk viscometry

CO [methanol]
Conditions	viscosity [mPa·s]
297.41 K, Amount density=10.1 mol/m3	0.009532 ± 0.00049
297.43 K, Amount density=8.17 mol/m3	0.009551 ± 0.00049
297.64 K, Amount density=3.79 mol/m3	0.009594 ± 0.00049
297.92 K, Amount density=38.68 mol/m3	0.009555 ± 0.00049
298.16 K, Amount density=6.32 mol/m3	0.009594 ± 0.00049
298.54 K, Amount density=13.2 mol/m3	0.009579 ± 0.00049
298.71 K, Amount density=49.53 mol/m3	0.009576 ± 0.00049
299.79 K, Amount density=32.22 mol/m3	0.009602 ± 0.00049
299.92 K, Amount density=24.58 mol/m3	0.009618 ± 0.00049
301.53 K, Amount density=17.93 mol/m3	0.009672 ± 0.00049
310.88 K, Amount density=24.58 mol/m3	0.009948 ± 0.0005
311.12 K, Amount density=17.93 mol/m3	0.009959 ± 0.0005
311.23 K, Amount density=8.17 mol/m3	0.01002 ± 0.0005
311.6 K, Amount density=32.22 mol/m3	0.009969 ± 0.0005
311.6 K, Amount density=38.68 mol/m3	0.009971 ± 0.0005
312.25 K, Amount density=6.32 mol/m3	0.01008 ± 0.0005
312.54 K, Amount density=3.79 mol/m3	0.0101 ± 0.0005
313.89 K, Amount density=10.1 mol/m3	0.01008 ± 0.0005
314.18 K, Amount density=13.2 mol/m3	0.01008 ± 0.0005
314.2 K, Amount density=49.53 mol/m3	0.01004 ± 0.0005
324.75 K, Amount density=3.79 mol/m3	0.0105 ± 0.00052
324.77 K, Amount density=49.53 mol/m3	0.01037 ± 0.00051
324.78 K, Amount density=32.22 mol/m3	0.01038 ± 0.00051
325.15 K, Amount density=8.17 mol/m3	0.0105 ± 0.00052
325.22 K, Amount density=10.1 mol/m3	0.0105 ± 0.00052
325.59 K, Amount density=17.93 mol/m3	0.01046 ± 0.00051
325.76 K, Amount density=13.2 mol/m3	0.01049 ± 0.00052
325.91 K, Amount density=6.32 mol/m3	0.01054 ± 0.00052
325.98 K, Amount density=24.58 mol/m3	0.01042 ± 0.00051
326.88 K, Amount density=38.68 mol/m3	0.01044 ± 0.00051
338.47 K, Amount density=8.17 mol/m3	0.01095 ± 0.00053
338.62 K, Amount density=10.1 mol/m3	0.01094 ± 0.00053
338.66 K, Amount density=32.22 mol/m3	0.01083 ± 0.00052
338.69 K, Amount density=3.79 mol/m3	0.01098 ± 0.00053
338.72 K, Amount density=38.68 mol/m3	0.0108 ± 0.00052
338.81 K, Amount density=49.53 mol/m3	0.01077 ± 0.00052
339.25 K, Amount density=17.93 mol/m3	0.01094 ± 0.00053
339.34 K, Amount density=13.2 mol/m3	0.01096 ± 0.00053
339.77 K, Amount density=6.32 mol/m3	0.01101 ± 0.00053
340.14 K, Amount density=24.58 mol/m3	0.01092 ± 0.00053
352.35 K, Amount density=49.53 mol/m3	0.01125 ± 0.00054
352.62 K, Amount density=8.17 mol/m3	0.01143 ± 0.00054
352.86 K, Amount density=10.1 mol/m3	0.01142 ± 0.00054
352.91 K, Amount density=3.79 mol/m3	0.01148 ± 0.00054
352.93 K, Amount density=3.79 mol/m3	0.01144 ± 0.00054
353.05 K, Amount density=8.17 mol/m3	0.01146 ± 0.00054
353.06 K, Amount density=38.68 mol/m3	0.01132 ± 0.00054
353.18 K, Amount density=38.68 mol/m3	0.01134 ± 0.00054
353.2 K, Amount density=49.53 mol/m3	0.01127 ± 0.00054
353.22 K, Amount density=13.2 mol/m3	0.01143 ± 0.00054
353.26 K, Amount density=13.2 mol/m3	0.01143 ± 0.00054
353.3 K, Amount density=6.32 mol/m3	0.01148 ± 0.00054
353.44 K, Amount density=10.1 mol/m3	0.01147 ± 0.00054
353.58 K, Amount density=17.93 mol/m3	0.01143 ± 0.00054
353.71 K, Amount density=24.58 mol/m3	0.01142 ± 0.00054
353.78 K, Amount density=32.22 mol/m3	0.01139 ± 0.00054
355.04 K, Amount density=32.22 mol/m3	0.01143 ± 0.00054
355.05 K, Amount density=24.58 mol/m3	0.01143 ± 0.00054
355.5 K, Amount density=6.32 mol/m3	0.01152 ± 0.00055
355.67 K, Amount density=17.93 mol/m3	0.01148 ± 0.00055
366.59 K, Amount density=10.1 mol/m3	0.01189 ± 0.00056
366.82 K, Amount density=8.17 mol/m3	0.01191 ± 0.00056
366.84 K, Amount density=3.79 mol/m3	0.01191 ± 0.00056
366.93 K, Amount density=17.93 mol/m3	0.01188 ± 0.00056
366.99 K, Amount density=32.22 mol/m3	0.01184 ± 0.00055
367.1 K, Amount density=13.2 mol/m3	0.01189 ± 0.00056
367.81 K, Amount density=49.53 mol/m3	0.01182 ± 0.00055
367.84 K, Amount density=6.32 mol/m3	0.01195 ± 0.00056
367.87 K, Amount density=38.68 mol/m3	0.01184 ± 0.00055
368.03 K, Amount density=24.58 mol/m3	0.0119 ± 0.00056
380.86 K, Amount density=10.1 mol/m3	0.01238 ± 0.00057
380.97 K, Amount density=13.2 mol/m3	0.01236 ± 0.00057
381.27 K, Amount density=3.79 mol/m3	0.0124 ± 0.00057
381.27 K, Amount density=49.53 mol/m3	0.0123 ± 0.00057
381.38 K, Amount density=8.17 mol/m3	0.01241 ± 0.00057
381.53 K, Amount density=17.93 mol/m3	0.01238 ± 0.00057
381.9 K, Amount density=38.68 mol/m3	0.01233 ± 0.00057
381.92 K, Amount density=32.22 mol/m3	0.01237 ± 0.00057
382.15 K, Amount density=6.32 mol/m3	0.01244 ± 0.00057
383.55 K, Amount density=24.58 mol/m3	0.01243 ± 0.00057
394.63 K, Amount density=10.1 mol/m3	0.01285 ± 0.00059
394.76 K, Amount density=8.17 mol/m3	0.01286 ± 0.00059
394.88 K, Amount density=49.53 mol/m3	0.01278 ± 0.00058
395.16 K, Amount density=32.22 mol/m3	0.01282 ± 0.00059
395.18 K, Amount density=24.58 mol/m3	0.01282 ± 0.00059
395.23 K, Amount density=17.93 mol/m3	0.01285 ± 0.00059
395.37 K, Amount density=38.68 mol/m3	0.01281 ± 0.00058
395.39 K, Amount density=3.79 mol/m3	0.01287 ± 0.00059
395.4 K, Amount density=13.2 mol/m3	0.01285 ± 0.00059
396.23 K, Amount density=6.32 mol/m3	0.01291 ± 0.00059
409.39 K, Amount density=13.2 mol/m3	0.01333 ± 0.0006
409.51 K, Amount density=10.1 mol/m3	0.01336 ± 0.0006
409.75 K, Amount density=24.58 mol/m3	0.01333 ± 0.0006
410.18 K, Amount density=32.22 mol/m3	0.01333 ± 0.0006
410.35 K, Amount density=38.68 mol/m3	0.01331 ± 0.0006
411.3 K, Amount density=3.79 mol/m3	0.01343 ± 0.0006
411.31 K, Amount density=6.32 mol/m3	0.01342 ± 0.0006
411.32 K, Amount density=49.53 mol/m3	0.01335 ± 0.0006
412.01 K, Amount density=17.93 mol/m3	0.01338 ± 0.0006
412.33 K, Amount density=8.17 mol/m3	0.01346 ± 0.0006
423.31 K, Amount density=8.17 mol/m3	0.01382 ± 0.00062
423.5 K, Amount density=3.79 mol/m3	0.01383 ± 0.00062
423.52 K, Amount density=49.53 mol/m3	0.01376 ± 0.00061
423.77 K, Amount density=13.2 mol/m3	0.01383 ± 0.00062
423.88 K, Amount density=32.22 mol/m3	0.0138 ± 0.00061
423.96 K, Amount density=10.1 mol/m3	0.01385 ± 0.00062
424.38 K, Amount density=17.93 mol/m3	0.01383 ± 0.00062
424.41 K, Amount density=24.58 mol/m3	0.01382 ± 0.00062
424.73 K, Amount density=6.32 mol/m3	0.01388 ± 0.00062
425.1 K, Amount density=38.68 mol/m3	0.0138 ± 0.00061
437.6 K, Amount density=10.1 mol/m3	0.01431 ± 0.00063
437.81 K, Amount density=8.17 mol/m3	0.01431 ± 0.00063
438.41 K, Amount density=13.2 mol/m3	0.01432 ± 0.00063
439.16 K, Amount density=32.22 mol/m3	0.01431 ± 0.00063
439.2 K, Amount density=24.58 mol/m3	0.01432 ± 0.00063
439.47 K, Amount density=17.93 mol/m3	0.01434 ± 0.00063
439.56 K, Amount density=49.53 mol/m3	0.0143 ± 0.00063
440.07 K, Amount density=6.32 mol/m3	0.01441 ± 0.00063
440.61 K, Amount density=3.79 mol/m3	0.01441 ± 0.00063
441.61 K, Amount density=38.68 mol/m3	0.01437 ± 0.00063
466.95 K, Amount density=24.58 mol/m3	0.01528 ± 0.00066
467.33 K, Amount density=10.1 mol/m3	0.0153 ± 0.00066
467.34 K, Amount density=38.68 mol/m3	0.01528 ± 0.00066
467.49 K, Amount density=49.53 mol/m3	0.01528 ± 0.00066
467.62 K, Amount density=32.22 mol/m3	0.01528 ± 0.00066
467.74 K, Amount density=13.2 mol/m3	0.01531 ± 0.00066
468.08 K, Amount density=17.93 mol/m3	0.01532 ± 0.00066
468.85 K, Amount density=3.79 mol/m3	0.01537 ± 0.00066
496.21 K, Amount density=38.68 mol/m3	0.01626 ± 0.00069
496.4 K, Amount density=8.17 mol/m3	0.01627 ± 0.00069
496.41 K, Amount density=17.93 mol/m3	0.01629 ± 0.00069
496.43 K, Amount density=13.2 mol/m3	0.01627 ± 0.00069
496.44 K, Amount density=24.58 mol/m3	0.01629 ± 0.00069
496.48 K, Amount density=49.53 mol/m3	0.01625 ± 0.00069
496.56 K, Amount density=10.1 mol/m3	0.01629 ± 0.00069
496.65 K, Amount density=3.79 mol/m3	0.01631 ± 0.00069
496.97 K, Amount density=32.22 mol/m3	0.0163 ± 0.00069
525.14 K, Amount density=49.53 mol/m3	0.01724 ± 0.00072
525.41 K, Amount density=3.79 mol/m3	0.01727 ± 0.00072
525.42 K, Amount density=8.17 mol/m3	0.01727 ± 0.00072
526.17 K, Amount density=32.22 mol/m3	0.01727 ± 0.00072
526.39 K, Amount density=13.2 mol/m3	0.01729 ± 0.00072
526.84 K, Amount density=24.58 mol/m3	0.0173 ± 0.00072
527.02 K, Amount density=38.68 mol/m3	0.01727 ± 0.00072
527.99 K, Amount density=17.93 mol/m3	0.01734 ± 0.00072
546.79 K, Amount density=8.17 mol/m3	0.018 ± 0.00074
546.84 K, Amount density=13.2 mol/m3	0.01798 ± 0.00074
547.13 K, Amount density=3.79 mol/m3	0.01802 ± 0.00074
547.3 K, Amount density=32.22 mol/m3	0.01801 ± 0.00074
547.49 K, Amount density=38.68 mol/m3	0.018 ± 0.00074
548.04 K, Amount density=49.53 mol/m3	0.01803 ± 0.00074
548.52 K, Amount density=17.93 mol/m3	0.01806 ± 0.00074
567.4 K, Amount density=13.2 mol/m3	0.01868 ± 0.00076
567.53 K, Amount density=32.22 mol/m3	0.01872 ± 0.00076
568.11 K, Amount density=38.68 mol/m3	0.01872 ± 0.00076
569.26 K, Amount density=3.79 mol/m3	0.01879 ± 0.00076
569.93 K, Amount density=49.53 mol/m3	0.01875 ± 0.00076
571.83 K, Amount density=17.93 mol/m3	0.01886 ± 0.00077
596.93 K, Amount density=13.2 mol/m3	0.01969 ± 0.00079
597.12 K, Amount density=32.22 mol/m3	0.01975 ± 0.00079
597.15 K, Amount density=17.93 mol/m3	0.01973 ± 0.00079
597.28 K, Amount density=49.53 mol/m3	0.01971 ± 0.00079
597.6 K, Amount density=3.79 mol/m3	0.01977 ± 0.00079
598.6 K, Amount density=38.68 mol/m3	0.01979 ± 0.00079
602.56 K, Amount density=8.17 mol/m3	0.01994 ± 0.0008
